Measured values from article PMC8948797 (International Journal of Molecular Sciences, 2022).

Tested on: hALN
Assay: cytoplasmic calcium measurements (Fluo-8) in hALN
Type: cell-based, human
Settings: 50 mM KCl, 21–30-day-old hALN, Figure S2
Source text: Figure 3 Characterization of the hALN. (A) 1 s-long depolarizing, and hyperpolarizing pulses injected into a hALN neuron. […] (E) Representative image of Fluo-8-loaded cells and region of interest for individual cells for intensity measurements (white line). […] Data are presented as fluorescence intensity in arbitrary units.
To test the effect of NPFFR2 on the cytoplasmic calcium dynamics, we measured intracellular calcium concentrations using hALNs loaded with Fluo-8. Typically, neurons display calcium oscillations with synchronized patterns, as cells become mature and capable of forming electrical connections with one another. We first recorded basal spontaneous activity in 21–30-day old hALNs and observed synchronized calcium oscillations in 30–70% of cells (Figure 3D–F).
In 8 ± 3% cells, we detected no change, and the remaining 13 ± 5% cells increased their oscillation rate (n = 12).
Cytosolic (Ca2+)i was measured using Ca^2+ indicator Fluo-8. […] Baseline signal was measured at 488 nm excitation and 510 nm emission using inCell analyzer 2000 for 5 min. […] After the background subtraction, calcium responses were processed and analyzed using ImageJ. Mean intensity over time was measured in ROIs including cytoplasmic soma area of individual cells and their traceable extensions. […] Data are presented as fluorescence intensity in arbitrary units. […]

Structure (SMILES): [Cl-].[K+] [KCl]
- cytoplasmic calcium response to KCl: induced a cytoplasmic calcium transient increase
